Biological target: T1, APE1 (Homo sapiens, UniProt P27695)
T1 construct: endogenous in cells; host or cells: HEK293T (ATCC CRL-3216)
Assay: APE1 inhibitor effect on indels and base diversification by AID or pmCDA1 fused to Cas9 nickase (D10A), HTS
Assay type: cell-based
Conditions: HEK293T cells, 100 μM and 200 μM, 3d, FIG. 6
Description: APE1 was inhibited by using CRT0044876 (Scheme 1), which is a potent and well-known APE1 inhibitor.
To ascertain whether this compound improves base diversification profile, HEK293T cells were treated with AID or pmCDA1 fused to Cas9 nickase (D10A) in the presence of CRT0044876. After 3d, the cells were harvested and analyzed through high-throughput sequencing (HTS).

T1 sequence (P27695 whole entry): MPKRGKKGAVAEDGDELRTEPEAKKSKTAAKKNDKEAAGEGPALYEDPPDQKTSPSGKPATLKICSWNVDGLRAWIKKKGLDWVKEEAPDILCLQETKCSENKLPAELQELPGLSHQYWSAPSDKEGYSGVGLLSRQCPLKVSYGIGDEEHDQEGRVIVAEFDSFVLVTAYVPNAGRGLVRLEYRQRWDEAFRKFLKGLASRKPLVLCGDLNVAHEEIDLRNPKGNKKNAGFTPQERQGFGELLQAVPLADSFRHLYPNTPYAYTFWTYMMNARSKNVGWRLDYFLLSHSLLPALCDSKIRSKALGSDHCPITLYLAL

- base diversification rate: some decrease
- amount of indel generated (multiple target sites): significant decrease
Structure (SMILES): O=C(O)c1cc2cccc([N+](=O)[O-])c2[nH]1 [CRT0044876]
